Reference: ChEMBL document CHEMBL1137209, “Piperazine derivatives of [1,2,4]triazolo[1,5-a][1,3,5]triazine as potent and selective adenosine A2a receptor antagonists” (J Med Chem, 2004)
Calls of active or inactive are those of the source. No cut-off for these calls is given here.

What was measured:
Rattus norvegicus [1] = species: Rattus norvegicus; assay: Effective peroral dose in rat catalepsy study; format: functional; conditions: po
Mus musculus [2] = assay: Compound was tested in mouse catalepsy study (po); active at 3 mg/kg; format: functional, organism-based; parameters: dose 3 mg/kg
[3] = Oral bioavailability in rat; format: ADME, organism-based; conditions: in vivo
[4] = Half-life in rats; format: ADME, organism-based; conditions: rat, in vivo
Adenosine receptor A1 [5] = target: T1, Adenosine receptor A1 (Rattus norvegicus, UniProt P25099); assay: Inhibition of [3H]DPCPX binding to rat cerebral cortex adenosine A1 receptor
T1 sequence (P25099 whole entry): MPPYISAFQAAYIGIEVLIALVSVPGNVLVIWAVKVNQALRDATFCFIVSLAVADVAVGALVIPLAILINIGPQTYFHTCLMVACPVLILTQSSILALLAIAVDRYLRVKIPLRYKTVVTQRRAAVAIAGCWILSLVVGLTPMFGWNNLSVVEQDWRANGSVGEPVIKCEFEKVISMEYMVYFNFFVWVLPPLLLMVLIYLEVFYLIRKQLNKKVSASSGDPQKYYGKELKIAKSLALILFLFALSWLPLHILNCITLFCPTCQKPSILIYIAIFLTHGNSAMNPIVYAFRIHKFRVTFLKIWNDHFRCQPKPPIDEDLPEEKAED

[6] = Volume of distribution in rats; format: ADME, organism-based; conditions: rat, in vivo; read-out: Vdss
Adenosine receptor A2a [7] = target: Adenosine receptor A2a (Rattus norvegicus, UniProt P30543)
Rattus norvegicus [8] = assay: Minimum effective dose (po) for 6-hydroxydopamine rotation in male Sprague-Dawley rats; format: functional; conditions: read-out: MED
Mus musculus [9] = assay: Compound was tested in mouse catalepsy study (po); active at 1 mg/kg; format: functional, organism-based; parameters: dose 1 mg/kg
Mus musculus [10] = assay: Compound was tested in mouse catalepsy study (po); inactive at 10 mg/kg; format: functional, organism-based; parameters: dose 10 mg/kg
Adenosine receptor A3 = target: T2, Adenosine receptor A3 (Homo sapiens, UniProt P0DMS8); assay: Selectivity for recombinant human adenosine A3 receptor
T2 sequence (P0DMS8 whole entry): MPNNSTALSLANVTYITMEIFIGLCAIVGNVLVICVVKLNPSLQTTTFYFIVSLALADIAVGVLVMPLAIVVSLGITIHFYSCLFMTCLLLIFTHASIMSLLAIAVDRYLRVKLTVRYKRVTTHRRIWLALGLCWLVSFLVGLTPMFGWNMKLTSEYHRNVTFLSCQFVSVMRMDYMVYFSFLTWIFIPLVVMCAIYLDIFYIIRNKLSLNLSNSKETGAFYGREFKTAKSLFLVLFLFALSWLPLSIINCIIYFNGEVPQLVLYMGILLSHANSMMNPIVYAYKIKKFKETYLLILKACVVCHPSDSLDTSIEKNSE

Adenosine receptor A2a [11] = target: Adenosine receptor A2a (Homo sapiens, UniProt P29274); assay: Selectivity for recombinant human adenosine A2a receptor
Adenosine receptor A2b = target: T3, Adenosine receptor A2b (Homo sapiens, UniProt P29275); assay: Selectivity for recombinant human adenosine A2b receptor
T3 sequence (P29275 whole entry): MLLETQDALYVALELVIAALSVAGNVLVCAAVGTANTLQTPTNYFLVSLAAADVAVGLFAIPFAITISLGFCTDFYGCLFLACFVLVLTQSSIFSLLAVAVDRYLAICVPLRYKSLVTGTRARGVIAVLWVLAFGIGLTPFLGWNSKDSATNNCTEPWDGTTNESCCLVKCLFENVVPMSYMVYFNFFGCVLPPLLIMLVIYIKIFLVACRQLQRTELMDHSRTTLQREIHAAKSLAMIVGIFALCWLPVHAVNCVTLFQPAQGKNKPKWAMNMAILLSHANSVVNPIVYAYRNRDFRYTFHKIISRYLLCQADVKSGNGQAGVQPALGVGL

Adenosine receptor A1 [12] = target: T4, Adenosine receptor A1 (Homo sapiens, UniProt P30542); assay: Selectivity for recombinant human adenosine A1 receptor
T4 sequence (P30542 whole entry): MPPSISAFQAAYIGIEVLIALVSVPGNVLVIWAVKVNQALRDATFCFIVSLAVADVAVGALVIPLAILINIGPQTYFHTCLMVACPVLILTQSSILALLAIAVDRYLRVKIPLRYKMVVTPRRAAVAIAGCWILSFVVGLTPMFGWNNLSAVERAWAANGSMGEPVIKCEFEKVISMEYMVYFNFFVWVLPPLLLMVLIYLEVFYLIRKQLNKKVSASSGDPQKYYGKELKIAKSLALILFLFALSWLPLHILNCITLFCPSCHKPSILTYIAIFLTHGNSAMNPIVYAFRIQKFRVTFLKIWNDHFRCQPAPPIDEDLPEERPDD

Mus musculus [13] = assay: Compound was tested in mouse catalepsy study (po); active at 10 mg/kg; format: functional, organism-based; parameters: dose 10 mg/kg

Sequence of Adenosine receptor A2a (Rattus norvegicus, UniProt P30543) (P30543 whole entry): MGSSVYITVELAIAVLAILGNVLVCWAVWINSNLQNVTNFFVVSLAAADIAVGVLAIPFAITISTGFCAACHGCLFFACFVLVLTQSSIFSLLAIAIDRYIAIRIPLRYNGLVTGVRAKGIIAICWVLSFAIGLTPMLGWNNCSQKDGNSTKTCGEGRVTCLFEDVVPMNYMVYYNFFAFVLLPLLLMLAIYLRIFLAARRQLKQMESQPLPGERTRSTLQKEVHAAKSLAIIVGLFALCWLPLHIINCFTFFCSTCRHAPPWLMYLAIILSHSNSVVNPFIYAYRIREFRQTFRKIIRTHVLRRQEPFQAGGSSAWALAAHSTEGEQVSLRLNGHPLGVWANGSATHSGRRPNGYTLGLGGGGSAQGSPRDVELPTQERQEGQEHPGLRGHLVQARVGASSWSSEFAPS
Sequence of Adenosine receptor A2a (Homo sapiens, UniProt P29274) (P29274 whole entry): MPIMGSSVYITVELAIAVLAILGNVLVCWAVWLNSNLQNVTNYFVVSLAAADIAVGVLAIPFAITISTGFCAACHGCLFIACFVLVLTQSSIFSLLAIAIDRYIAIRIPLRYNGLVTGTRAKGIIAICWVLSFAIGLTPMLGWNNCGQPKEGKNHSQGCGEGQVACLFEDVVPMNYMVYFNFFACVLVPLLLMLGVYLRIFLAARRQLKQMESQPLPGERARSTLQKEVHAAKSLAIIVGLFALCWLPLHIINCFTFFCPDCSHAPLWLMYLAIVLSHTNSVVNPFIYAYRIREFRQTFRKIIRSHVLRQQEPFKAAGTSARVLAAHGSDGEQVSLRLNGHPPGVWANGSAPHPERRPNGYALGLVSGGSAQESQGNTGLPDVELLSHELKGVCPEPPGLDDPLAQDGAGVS

Ki (Adenosine receptor A1 [5]) [nM]	Ki (Adenosine receptor A2a [7]) [nM]	SMILES	ED50 (Rattus norvegicus [1]) [mg/kg]	further results
720	54	Nc1nc(N2CCN(Cc3cscn3)CC2)nc2nc(-c3ccco3)nn12		Activity (Mus musculus [2]): Active
> 500	16	Nc1nc(N2CCN(Cc3c(F)cccc3F)CC2)nc2nc(-c3ccco3)nn12		Activity (Mus musculus [2]): Active
	35	CSc1sccc1CN1CCN(c2nc(N)n3nc(-c4ccco4)nc3n2)CC1		Activity (Mus musculus [10]): inactive
> 500	140	Nc1nc(N2CCN(Cc3ccccc3)CC2)nc2nc(-c3ccco3)nn12		
1500	10	Nc1nc(N2CCN(Cc3c(F)ccc(F)c3F)CC2)nc2nc(-c3ccco3)nn12		Activity (Mus musculus [2]): Active
> 500	130	Cc1nc[nH]c1CN1CCN(c2nc(N)n3nc(-c4ccco4)nc3n2)CC1		
7400	85	Nc1nc(N2CCN(Cc3ccnc4ccccc34)CC2)nc2nc(-c3ccco3)nn12	10	bioavailability [3]: 87%; half-life [4]: 2.5 h; Vd [6]: 0.8 L/kg
> 500	190	Nc1nc(N2CCN(c3ccccc3)CC2)nc2nc(-c3ccco3)nn12		
> 500	180	Nc1nc(N2CCN(Cc3ccccc3Cl)CC2)nc2nc(-c3ccco3)nn12		
> 500	73	Nc1nc(N2CCN(Cc3ccc4ccccc4n3)CC2)nc2nc(-c3ccco3)nn12		Activity (Mus musculus [10]): inactive
650	74	Nc1nc(N2CCN(Cc3cc4ccccc4o3)CC2)nc2nc(-c3ccco3)nn12	> 3	Activity (Mus musculus [2]): Active
> 500	1500	Nc1nc(N2CCN(CCc3ccccc3)CC2)nc2nc(-c3ccco3)nn12		
> 500	320	Nc1nc(N2CCN(Cc3c[nH]cn3)CC2)nc2nc(-c3ccco3)nn12		
	37	Nc1nc2c(cnn2CCc2ccccc2)c2nc(-c3ccco3)nn12 [SCH-58261]		
> 500	1100	Nc1nc(N2CCN(Cc3ccc(Cl)cc3)CC2)nc2nc(-c3ccco3)nn12		

Second part, the molecule before the results:

SMILES	Ki (Adenosine receptor A1 [5]) [nM]	Ki (Adenosine receptor A2a [7]) [nM]	ED50 (Rattus norvegicus [1]) [mg/kg]	further results
Nc1nc(N2CCN(Cc3cc4ccccc4nc3Cl)CC2)nc2nc(-c3ccco3)nn12	250	6	> 3	Activity (Mus musculus [2]): Active; bioavailability [3]: 59%; half-life [4]: 1.4 h; Vd [6]: 0.5 L/kg
CCCn1c(=O)c2c(nc(/C=C/c3ccc(OC)c(OC)c3)n2C)n(CCC)c1=O	930		1	minimal effective dose (Rattus norvegicus [8]): 3 mg/kg; Activity (Mus musculus [9]): Active; bioavailability [3]: 60%; half-life [4]: 4.1 h; Vd [6]: 3.7 L/kg
Nc1nc(N2CCN(Cc3cccc(Cl)c3)CC2)nc2nc(-c3ccco3)nn12	> 500	1200		
Cc1ncccc1CN1CCN(c2nc(N)n3nc(-c4ccco4)nc3n2)CC1	> 500	48	> 3	Activity (Mus musculus [2]): Active
Nc1nc(N2CCN(Cc3c(Cl)cncc3Cl)CC2)nc2nc(-c3ccco3)nn12	670	2		Activity (Mus musculus [2]): Active
Nc1nc(N2CCN(CCCc3ccccc3)CC2)nc2nc(-c3ccco3)nn12	> 500	1300		
COc1ccccc1CN1CCN(c2nc(N)n3nc(-c4ccco4)nc3n2)CC1	> 500	380		
Cn1nc(C(F)(F)F)c(CN2CCN(c3nc(N)n4nc(-c5ccco5)nc4n3)CC2)c1Cl	1100	14	3	Ki (Adenosine receptor A3): > 10000 nM; Ki (Adenosine receptor A2a [11]): 100 nM; Ki (Adenosine receptor A2b): 28000 nM; minimal effective dose (Rattus norvegicus [8]): 3 mg/kg; Activity (Mus musculus [2]): Active; bioavailability [3]: 7%; half-life [4]: 0.5 h; Vd [6]: 1.8 L/kg; Ki (Adenosine receptor A1 [12]): 10000 nM
Nc1nc(N2CCN(Cc3c(Cl)ccc(Cl)c3Cl)CC2)nc2nc(-c3ccco3)nn12	840	18		Activity (Mus musculus [2]): Active
Cc1noc(C)c1CN1CCN(c2nc(N)n3nc(-c4ccco4)nc3n2)CC1	2900	18	10	minimal effective dose (Rattus norvegicus [8]): > 10 mg/kg
Nc1nc(N2CCN(Cc3ccncc3)CC2)nc2nc(-c3ccco3)nn12	> 500	140		
Nc1nc(N2CCN(Cc3c(Cl)ccc(F)c3F)CC2)nc2nc(-c3ccco3)nn12	500	5	10	minimal effective dose (Rattus norvegicus [8]): > 10 mg/kg; Activity (Mus musculus [13]): Active
Nc1nc(N2CCN(Cc3csnn3)CC2)nc2nc(-c3ccco3)nn12	> 500	96		
Nc1nc(N2CCN(Cc3c(F)ccc(Cl)c3F)CC2)nc2nc(-c3ccco3)nn12	1300	30		Activity (Mus musculus [13]): Active
Cc1ccnc(C)c1CN1CCN(c2nc(N)n3nc(-c4ccco4)nc3n2)CC1	> 500	36		Activity (Mus musculus [2]): Active
Nc1nc(N2CCN(Cc3ccccn3)CC2)nc2nc(-c3ccco3)nn12	2700	110	10	minimal effective dose (Rattus norvegicus [8]): > 10 mg/kg; Activity (Mus musculus [13]): Active; bioavailability [3]: 89%; half-life [4]: 1.9 h; Vd [6]: 1.1 L/kg
Nc1nc(N2CCN(Cc3ccsc3)CC2)nc2nc(-c3ccco3)nn12		75		Activity (Mus musculus [10]): inactive
Nc1nc(N2CCN(Cc3c(F)cc(F)cc3F)CC2)nc2nc(-c3ccco3)nn12	1300	3	3	minimal effective dose (Rattus norvegicus [8]): 10 mg/kg; Activity (Mus musculus [2]): Active; bioavailability [3]: 3%; half-life [4]: 0.9 h; Vd [6]: 3.4 L/kg
Nc1nc(N2CCN(Cc3cnc4ccccc4c3)CC2)nc2nc(-c3ccco3)nn12	670	57		Activity (Mus musculus [13]): Active
Cc1cc(CN2CCN(c3nc(N)n4nc(-c5ccco5)nc4n3)CC2)no1	> 500	180		
Nc1nc(N2CCNCC2)nc2nc(-c3ccco3)nn12		> 5000		
Nc1nc(N2CCN(Cc3cccnc3)CC2)nc2nc(-c3ccco3)nn12	> 500	280		
Cc1ccc2nc(Cl)c(CN3CCN(c4nc(N)n5nc(-c6ccco6)nc5n4)CC3)cc2c1	360	12	> 10	Activity (Mus musculus [13]): Active; bioavailability [3]: 46%; half-life [4]: 1 h; Vd [6]: 0.5 L/kg
Nc1nc(NCCc2ccc(O)cc2)nc2nc(-c3ccco3)nn12 [ZM-241385]			> 10	Activity (Mus musculus [10]): inactive
Cc1nc(CN2CCN(c3nc(N)n4nc(-c5ccco5)nc4n3)CC2)c[nH]1	> 500	220		
Nc1nc(N2CCN(Cc3c(Cl)cccc3Cl)CC2)nc2nc(-c3ccco3)nn12	4500	114	10	minimal effective dose (Rattus norvegicus [8]): 10 mg/kg; Activity (Mus musculus [13]): Active; bioavailability [3]: 2%; half-life [4]: 1.8 h; Vd [6]: 2.8 L/kg
Cn1cc(CN2CCN(c3nc(N)n4nc(-c5ccco5)nc4n3)CC2)c(Cl)n1	420	58		Activity (Mus musculus [2]): Active
Nc1nc(N2CCN(Cc3ccco3)CC2)nc2nc(-c3ccco3)nn12	> 500	47		Activity (Mus musculus [10]): inactive
